# Measured values reported in publication PMC8172577, “A Novel Antimicrobial Peptides From Pine Needles of Pinus densiflora Sieb. et Zucc. Against Foodborne Bacteria” (Frontiers in Microbiology, 2021).
# Where two headings read alike, the source gives them in different places. Where no end group is shown, it is not given here.
# What was measured:
# Assay type in all cases: cell-based
# [1] = tested on: Listeria monocytogenes KCTC3710; details: minimal concentration of peptide to inhibit microbial growth; 5 × 10^5 CFU/ml, 18 h at 37°C, OD 600 nm
# Experimental: (§1) For antimicrobial assays, Escherichia coli ATCC 25922, Pseudomonas aeruginosa ATCC 15692, Staphylococcus aureus ATCC 25923, and Staphylococcus epidermidis ATCC 12228 were obtained from the American Type Culture Collection (Manassas, VA, United States). Salmonella typhimurium KCTC 1926 and Listeria monocytogenes KCTC 3710 were obtained from the Korean Collection for Type Cultures (Jeollabuk-do, Korea).
# (§2) Minimum inhibitory concentrations (MICs) of purified PN peptides were assayed according to the Clinical and Laboratory Standards Institute recommendations ([Wiegand et al., 2008]). Briefly, bacterial suspension (5 × 10^5 CFU/ml), obtained by diluting an exponential growth phase culture, was then added into the 96-well plates containing 2-fold serial dilutions of each fraction, the plates were incubated for 18 h at 37°C. MICs of PN peptides were measured in optical density at 600 nm using Versamax™ ELISA Microplate Reader (Molecular Devices, Sunnyvale, CA, United States). PBS, culture media, and melittin were used as growth and growth inhibition controls. The MIC was defined as the lowest concentration of PN peptide that was able to inhibit microbial growth.
# [2] = tested on: Salmonella typhimurium KCTC1926; details: minimal concentration of peptide to inhibit microbial growth; 5 × 10^5 CFU/ml, 18 h at 37°C, OD 600 nm
# Experimental: as §1, §2
# [3] = tested on: mouse red blood cells (mRBCs); test: Hemolytic activity; details: 60 min at 37°C
# Experimental: Hemolysis was determined using the mouse red blood cells (mRBCs). Fresh mRBCs were collected in PBS and washed three times with PBS (final mRBC concentration, 8% v/v). […] Hemolytic activity was monitored at an absorbance (A) of 414 nm and calculated as a positive control [0.1% Triton X-100 (Atriton)] and negative control [PBS (Ablank)]. The resulting values of cells that underwent hemolysis were calculated according to equation ([Park et al., 2008]):
# (1) Hemolysis=[(Asample−Ablank)/(Atriton−Ablank)]×100%
# [4] = tested on: RAW264.7 (mouse macrophages) cells; test: Cytotoxicity, MTT assay, RAW264.7; details: 12.5 μg/ml, 24 h
# Experimental: (§3) The cytotoxic effect of PN peptides was assessed against HaCaT (human keratinocytes) and RAW264.7 (mouse macrophages) cells cultured in 96-well plates at a density of 2 × 10^4 cells/well in Dulbecco’s modified Eagle medium (DMEM) containing 10% fetal bovine serum. MTT [3-(4,5-dimethylthiazol-2-yl)-2,5-diphenyltetrazolium bromide] assays were used to evaluate cytotoxicity. PN peptides (0–200 μg/ml) were added with the cells for 24 h at 37°C. Subsequently, MTT (0.5 mg/ml) was added to each well and incubated for 4 h at 37°C After incubation, formazan crystals produced was dissolved in dimethyl sulfoxide, and the absorbance at 570 nm was measured and cytotoxicity was determined as a percentage of 100% cytotoxic control (0.1% Triton X-100; [Park et al., 2008]). Melittin was used as the control (reference) peptide.
# [5] = tested on: HaCaT (human keratinocytes) cells; test: Cytotoxicity, MTT assay, HaCaT
# Experimental: as §3
# [6] = tested on: Escherichia coli ATCC25922; details: minimal concentration of peptide to inhibit microbial growth; 5 × 10^5 CFU/ml, 18 h at 37°C, OD 600 nm
# Experimental: as §1, §2
# [7] = tested on: Staphylococcus aureus ATCC25923; details: for Increased in MIC (fold): compared to the soluble extract
# Experimental: as §1, §2
# [8] = minimal concentration of peptide to inhibit microbial growth, 5 × 10^5 CFU/ml, 18 h at 37°C, OD 600 nm
Compound,MIC [1] [µg/mL],MIC [2] [µg/mL],"hemolysis at the lowest concentration ([3]; 3 μg/ml, 8% v/v mRBCs)",lysis (cytotoxicity) [4] [%],"lysis (cytotoxicity) ([5]; 12.5 μg/ml, 24 h) [%]",MIC [6] [µg/mL],"MIC [7, 8] [µg/mL]","hemolysis ([3]; 200 μg/ml, 8% v/v mRBCs in PBS, A414, vs 0.1% Triton X-100, n = 3)","cytotoxicity ([5]; 200 μg/ml, 24 h at 37°C, vs 0.1% Triton X-100, n = 3) [%]",Increased in MIC (fold) ([7]; after First C18 RP-HPLC),Increased in MIC (fold) ([7]; after Second C18 RP-HPLC),"MIC ([7]; fraction after First C18 RP-HPLC, S. aureus ATCC25923) [µg/mL]","MIC ([7]; fraction after Second C18 RP-HPLC, S. aureus ATCC25923) [µg/mL]"
"CC[C@H](C)[C@H](NC(=O)CN)C(=O)NCC(=O)N[C@@H](C)C(=O)N[C@H](C(=O)N[C@@H](CC(C)C)C(=O)N[C@@H](CCCCN)C(=O)N[C@H](C(=O)N[C@@H](CC(C)C)C(=O)N[C@H](C(=O)N[C@H](C(=O)NCC(=O)N[C@@H](CC(C)C)C(=O)N1CCC[C@H]1C(=O)N[C@@H](C)C(=O)N[C@@H](CC(C)C)C(=O)N[C@H](C(=O)N[C@@H](CO)C(=O)N[C@@H](Cc1c[nH]c2ccccc12)C(=O)N[C@H](C(=O)N[C@@H](CCCCN)C(=O)N[C@@H](CCCNC(=N)N)C(=O)N[C@@H](CCCCN)C(=O)N[C@@H](CCCNC(=N)N)C(=O)N[C@@H](CCC(N)=O)C(=O)N[C@@H](CCC(N)=O)C(N)=O)[C@@H](C)CC)[C@@H](C)CC)[C@@H](C)O)[C@@H](C)O)C(C)C)C(C)C [Melittin, reference compound]",4,2,induced hemolysis,100,100,,,,,,,,
FKFLARTGKFL [PN5],32,64,,,,64,32,approximately 5%,19,,,,
"FKFLARTGKFL [PN-#5, peptide purified from pine needles of Pinus densiflora by RP-HPLC, peak 5]",32,64,,,,64,32,,,12.5,234.4,600,32
FKFLARTGKFL-NH2 [PN5-NH2],32,32,,,,64,16,,,,,,
